This note sets out measurements from ChEMBL document CHEMBL1159275, “Mycalolides D and E, new cytotoxic macrolides from a collection of the stony coral Tubastrea faulkneri” (1995).

This assay in a line: Cytotoxicity against human NCI60 cells. The format is functional. Particulars: read-out: LC50 (the source's name).

Consider `CO[C@H]1C/C=C/c2nc(co2)-c2nc(co2)-c2nc(co2)[C@@H](OC)[C@@H](C)C(=O)/C=C/C[C@H](O)CC(=O)O[C@@H](C[C@H](OC)[C@@H](C)CC[C@@H](OC(=O)[C@@H](C)OC)[C@H](C)[C@H](OC(C)=O)[C@H](C)/C=C/N(C)C=O)[C@@H]1C` [MYCALOLIDE C], for which the CC50 is 2500 nM. Consider `COCC(OC)C(=O)OC(CCC(C)C(CC1OC(=O)CC(O)C/C=C/C(=O)CC(C)C(=O)NC(=O)c2coc(n2)-c2coc(n2)/C=C/CC(OC)C1C)OC)C(C)C(OC(C)=O)C(C)/C=C/N(C)C=O` (configuration not stated) [MYCALOLIDE D], for which the CC50 worked out at 600 nM.
